# Experimental data reported in patent US20230093861A1, “RAPAMYCIN ANALOGS AS MTOR INHIBITORS” (Revolution Medicines, Inc., priority 2017, published 2023).
# Read-outs that look alike come from different tables or passages of the source.
# Assays:
# P-Akt (S473) = assay: Cell based AlphaLISA assay, inhibition of P-Akt (S473) (mTORC2 substrate phosphorylation) in MDA-MB-468 cells; details: Homo sapiens, AlphaLISA, two to four hours at 37° C., read-out: pIC50 for Inhibition of mTORC1 and mTORC2 Substrate Phosphorylation, p-AKT 1/2/3 -(S473) (converted)
# In short: (§1)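 Cells are exposed to inhibitor, then the assay buffer is taken off and kit lysis buffer added. Lysates undergo AlphaLISA SureFire Ultra detection in duplicate.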
# P-4E-BP1 (T37/46) = assay: Cell based AlphaLISA assay, inhibition of P-4E-BP1 (T37/46) (mTORC1 substrate phosphorylation) in MDA-MB-468 cells; details: Homo sapiens, AlphaLISA, two to four hours at 37° C., read-out: pIC50 for Inhibition of mTORC1 and mTORC2 Substrate Phosphorylation, P-4E-BP1-(T37/46) (converted)
# In short: as §1
# P-P70S6K (T389) = assay: Cell based AlphaLISA assay, inhibition of P-P70S6K (T389) (mTORC1 substrate phosphorylation) in MDA-MB-468 cells; details: Homo sapiens, 4 h, AlphaLISA, two to four hours at 37° C., read-out: pIC50 for Inhibition of mTORC1 and mTORC2 Substrate Phosphorylation, P-P70S6K-(T389) (converted)
# In short: as §1
SMILES,IC50 (P-Akt (S473); 4 h),IC50 (P-4E-BP1 (T37/46); 4 h),IC50 (P-P70S6K (T389)),"IC50 (P-Akt (S473); MDA-MB-468, 4 h)","IC50 (P-4E-BP1 (T37/46); MDA-MB-468, 4 h)"
CO[C@H]1C[C@@H]2CC[C@@H](C)[C@@](O)(O2)C(=O)C(=O)N2CCCC[C@H]2C(=O)O[C@H]([C@H](C)C[C@@H]2CC[C@@H](OCCCCc3cn(CCOCCOCCOCCOCCOCCOCCOCCOCCC(=O)N4CCc5cc(Cn6nc(-c7ccc8oc(N)nc8c7)c7c(N)ncnc76)ccc5C4)nn3)[C@H](OC)C2)CC(=O)[C@H](C)/C=C(\C)[C@@H](O)[C@@H](OC)C(=O)[C@H](C)C[C@H](C)/C=C/C=C/C=C/1C [Example 88],3.16 to 31.6 nM,< 3.16 nM,< 1 nM,,
CO[C@H]1C[C@@H]2CC[C@@H](C)[C@@](O)(O2)C(=O)C(=O)N2CCCC[C@H]2C(=O)O[C@H]([C@H](C)C[C@@H]2CC[C@@H](OCCCCc3cn(CCOCCOCCOCCOCCOCCOCCC(=O)N4CCc5cc(Cn6nc(-c7ccc8oc(N)nc8c7)c7c(N)ncnc76)ccc5C4)nn3)[C@H](OC)C2)CC(=O)[C@H](C)/C=C(\C)[C@@H](O)[C@@H](OC)C(=O)[C@H](C)C[C@H](C)/C=C/C=C/C=C/1C [Example 89],,,< 1 nM,3.16 to 31.6 nM,< 3.16 nM
CO[C@H]1C[C@@H]2CC[C@@H](C)[C@@](O)(O2)C(=O)C(=O)N2CCCC[C@H]2C(=O)O[C@H]([C@H](C)C[C@@H]2CC[C@@H](OCCCCc3cn(CCOCCOCCOCCOCCOCCOCCOCCOCCC(=O)N4CCC(Cn5nc(-c6ccc7oc(N)nc7c6)c6c(N)ncnc65)CC4)nn3)[C@H](OC)C2)CC(=O)[C@H](C)/C=C(\C)[C@@H](O)[C@@H](OC)C(=O)[C@H](C)C[C@H](C)/C=C/C=C/C=C/1C [Example 90],< 3.16 nM,< 3.16 nM,< 1 nM,,
CO[C@H]1C[C@@H]2CC[C@@H](C)[C@@](O)(O2)C(=O)C(=O)N2CCCC[C@H]2C(=O)O[C@H]([C@H](C)C[C@@H]2CC[C@@H](OCCCCc3cn(CCOCCOCCOCCOCCOCCOCCC(=O)N4CCC(Cn5nc(-c6ccc7oc(N)nc7c6)c6c(N)ncnc65)CC4)nn3)[C@H](OC)C2)CC(=O)[C@H](C)/C=C(\C)[C@@H](O)[C@@H](OC)C(=O)[C@H](C)C[C@H](C)/C=C/C=C/C=C/1C [Example 91],,,< 1 nM,< 3.16 nM,< 3.16 nM
CO[C@H]1C[C@@H]2CC[C@@H](C)[C@@](O)(O2)C(=O)C(=O)N2CCCC[C@H]2C(=O)O[C@H]([C@H](C)C[C@@H]2CC[C@@H](OCCCCc3cn(CCOCCOCCOCCOCCOCCOCCOCCOCCC(=O)N4CCc5cc(Cn6nc(-c7ccc8oc(N)nc8c7)c7c(N)ncnc76)ccc5C4)nn3)[C@H](OC)C2)C[C@@H](OC)[C@H](C)/C=C(\C)[C@@H](O)[C@@H](OC)C(=O)[C@H](C)C[C@H](C)/C=C/C=C/C=C/1C [Example 92],31.6 to 1000 nM,3.16 to 31.6 nM,< 1 nM,,
CO[C@H]1C[C@@H]2CC[C@@H](C)[C@@](O)(O2)C(=O)C(=O)N2CCCC[C@H]2C(=O)O[C@H]([C@H](C)C[C@@H]2CC[C@@H](O)[C@H](OC)C2)C[C@@H](O)[C@H](C)/C=C(\C)[C@@H](O)[C@@H](OC)C(=NOCc2cn(CCOCCOCCOCCOCCOCCOCCC(=O)NCCCCn3nc(-c4cc5cc(O)ccc5[nH]4)c4c(N)ncnc43)nn2)[C@H](C)C[C@H](C)/C=C/C=C/C=C/1C [Example 93],,,1 to 10 nM,> 1000 nM,3.16 to 31.6 nM
CO[C@H]1C[C@@H]2CC[C@@H](C)[C@@](O)(O2)C(=O)C(=O)N2CCCC[C@H]2C(=O)O[C@H]([C@H](C)C[C@@H]2CC[C@@H](O)[C@H](OC)C2)C[C@@H](O)[C@H](C)/C=C(\C)[C@@H](O)[C@@H](OC)C(=NOCc2cn(CCOCCOCCOCCOCCOCCOCCOCCOCCC(=O)NCCCCn3nc(-c4cc5cc(O)ccc5[nH]4)c4c(N)ncnc43)nn2)[C@H](C)C[C@H](C)/C=C/C=C/C=C/1C [Example 94],,,1 to 10 nM,> 1000 nM,3.16 to 31.6 nM
CO[C@H]1C[C@@H]2CC[C@@H](C)[C@@](O)(O2)C(=O)C(=O)N2CCCC[C@H]2C(=O)O[C@H]([C@H](C)C[C@@H]2CC[C@@H](OCCCCc3cn(CCOCCOCCOCCOCCOCCOCCOCCOCCC(=O)N4CCN(c5cc(-n6nc(-c7ccc8oc(N)nc8c7)c7c(N)ncnc76)ncn5)CC4)nn3)[C@H](OC)C2)CC(=O)[C@H](C)/C=C(\C)[C@@H](O)[C@@H](OC)C(=O)[C@H](C)C[C@H](C)/C=C/C=C/C=C/1C [Example 95],,,< 1 nM,3.16 to 31.6 nM,< 3.16 nM
CO[C@H]1C[C@@H]2CC[C@@H](C)[C@@](O)(O2)C(=O)C(=O)N2CCCC[C@H]2C(=O)O[C@H]([C@H](C)C[C@@H]2CC[C@@H](OCCCCc3cn(CCOCCOCCOCCOCCOCCOCCOCCOCCC(=O)NCCS(=O)(=O)c4ccc(C(=O)N5CCOc6ccc(-c7ccc(N)nc7)cc6C5)c(C)c4F)nn3)[C@H](OC)C2)CC(=O)[C@H](C)/C=C(\C)[C@@H](O)[C@@H](OC)C(=O)[C@H](C)C[C@H](C)/C=C/C=C/C=C/1C [Example 96],,,< 1 nM,3.16 to 31.6 nM,< 3.16 nM
CO[C@H]1C[C@@H]2CC[C@@H](C)[C@@](O)(O2)C(=O)C(=O)N2CCCC[C@H]2C(=O)O[C@H]([C@H](C)C[C@@H]2CC[C@@H](OCCCCc3cn(CCOCCOCCOCCOCCOCCOCCOCCOCCOCCOCCOCCOCCOCCOCCOCCOCCOCCOCCOCCOCCOCCOCCOCCOCCC(=O)NCCCCn4nc(-c5ccc6oc(N)nc6c5)c5c(N)ncnc54)nn3)[C@H](OC)C2)CC(=O)[C@H](C)/C=C(\C)[C@@H](O)[C@@H](OC)C(=O)[C@H](C)C[C@H](C)/C=C/C=C/C=C/1C [Example 97],,,1 to 10 nM,3.16 to 31.6 nM,3.16 to 31.6 nM
CO[C@H]1C[C@@H]2CC[C@@H](C)[C@@](O)(O2)C(=O)C(=O)N2CCCC[C@H]2C(=O)O[C@H]([C@H](C)C[C@@H]2CC[C@@H](OCCCCc3cn(CCOCCOCCOCCOCCNC(=O)CCC(=O)NCCCCn4nc(-c5ccc6oc(N)nc6c5)c5c(N)ncnc54)nn3)[C@H](OC)C2)CC(=O)[C@H](C)/C=C(\C)[C@@H](O)[C@@H](OC)C(=O)[C@H](C)C[C@H](C)/C=C/C=C/C=C/1C [Example 99],,,< 1 nM,3.16 to 31.6 nM,3.16 to 31.6 nM
CO[C@H]1C[C@@H]2CC[C@@H](C)[C@@](O)(O2)C(=O)C(=O)N2CCCC[C@H]2C(=O)O[C@H]([C@H](C)C[C@@H]2CC[C@@H](OCCCCc3cn(CCOCCOCCOCCNC(=O)CCCC(=O)NCCCCn4nc(-c5ccc6oc(N)nc6c5)c5c(N)ncnc54)nn3)[C@H](OC)C2)CC(=O)[C@H](C)/C=C(\C)[C@@H](O)[C@@H](OC)C(=O)[C@H](C)C[C@H](C)/C=C/C=C/C=C/1C [Example 100],,,< 1 nM,3.16 to 31.6 nM,31.6 to 1000 nM
CO[C@H]1C[C@@H]2CC[C@@H](C)[C@@](O)(O2)C(=O)C(=O)N2CCCC[C@H]2C(=O)O[C@H]([C@H](C)C[C@@H]2CC[C@@H](OCCCCc3cn(CCOCCOCCOCCOCCNC(=O)CCCC(=O)NCCCCn4nc(-c5ccc6oc(N)nc6c5)c5c(N)ncnc54)nn3)[C@H](OC)C2)CC(=O)[C@H](C)/C=C(\C)[C@@H](O)[C@@H](OC)C(=O)[C@H](C)C[C@H](C)/C=C/C=C/C=C/1C [Example 101],,,< 1 nM,3.16 to 31.6 nM,< 3.16 nM
